{"source": "PubChem BioAssay AID2060907", "about": "(Molecular Pharmacology Branch, DTP, NCI, 2025)", "test_system": "388556-164-R-J1-PDC complex spheroid viability", "assay": "Anticancer human tumor 388556-164-R-J1-PDC patient-derived colon adenocarcinoma cell line growth inhibition [RAS]", "settings": "for pIC50: curve of first compound; for viability, T/C: stronger effect = lower value", "method_in_brief": "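Multi-cell-type spheroids: tumor cells plus HUVEC endothelial cells and mesenchymal stem cells. RAS-pathway inhibitors were combined with targeted agents, each dosed in half-log steps down from clinical Cmax, or from 10 microM when Cmax was unknown.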", "key": {"[1]": {"settings": "second compound 0.0316 µM, first compound 0.0316 µM"}, "[2]": {"settings": "second compound 0.0316 µM, first compound 0.1 µM"}, "[3]": {"settings": "second compound 0.0316 µM, first compound 0.316 µM"}, "[4]": {"settings": "second compound 0.0316 µM, first compound 1 µM"}, "[5]": {"settings": "second compound 0.0316 µM, first compound 3.16 µM"}, "[6]": {"settings": "second compound 0.0316 µM, first compound 10 µM"}, "[7]": {"settings": "second compound 0.1 µM, first compound 0.0316 µM"}, "[8]": {"settings": "second compound 0.1 µM, first compound 0.1 µM"}, "[9]": {"settings": "second compound 0.1 µM, first compound 0.316 µM"}, "[10]": {"settings": "second compound 0.1 µM, first compound 1 µM"}, "[11]": {"settings": "second compound 0.1 µM, first compound 3.16 µM"}, "[12]": {"settings": "second compound 0.1 µM, first compound 10 µM"}, "[13]": {"settings": "second compound 0.316 µM, first compound 0.0316 µM"}, "[14]": {"settings": "second compound 0.316 µM, first compound 0.1 µM"}, "[15]": {"settings": "second compound 0.316 µM, first compound 0.316 µM"}, "[16]": {"settings": "second compound 0.316 µM, first compound 1 µM"}, "[17]": {"settings": "second compound 0.316 µM, first compound 3.16 µM"}, "[18]": {"settings": "second compound 0.316 µM, first compound 10 µM"}, "[19]": {"settings": "second compound 1 µM, first compound 0.0316 µM"}, "[20]": {"settings": "second compound 1 µM, first compound 0.1 µM"}, "[21]": {"settings": "second compound 1 µM, first compound 0.316 µM"}, "[22]": {"settings": "second compound 1 µM, first compound 1 µM"}, "[23]": {"settings": "second compound 1 µM, first compound 3.16 µM"}, "[24]": {"settings": "second compound 1 µM, first compound 10 µM"}}, "note": "pIC50: −log10 of the molar value.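 Note: spheroids exposed to compound for 7 days before readout.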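 Throughout, for viability, T/C: 100% = DMSO vehicle control luminescence.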"}
{"smiles": "CC(Nc1ccc2c(c1)OCCn1cc(N3C(=O)OCC3C(F)F)nc1-2)C(N)=O", "note": "(centres undefined) + C=CC(=O)N1CCN(c2nc(OCC3CCCN3C)nc3c(F)c(-c4nc(N)cc(C)c4C(F)(F)F)c(Cl)cc23)C(C)C1", "values": [{"measurement": "pIC50", "setting": "second compound 0.00316 µM", "value": "< 5.00"}, {"measurement": "pIC50", "setting": "second compound 0.01 µM", "value": "< 5.00"}, {"measurement": "pIC50", "setting": "second compound 0.0316 µM", "value": "< 5.00"}, {"measurement": "pIC50", "setting": "second compound 0.1 µM", "value": "< 5.00"}, {"measurement": "pIC50", "setting": "second compound 0.316 µM", "value": "< 5.00"}, {"measurement": "pIC50", "setting": "second compound 1 µM", "value": "< 5.00"}, {"measurement": "viability, T/C", "setting": "second compound 0.00316 µM, first compound 0.0316 µM", "value": 108, "unit": "%"}, {"measurement": "viability, T/C", "setting": "second compound 0.00316 µM, first compound 0.1 µM", "value": 96.9, "unit": "%"}, {"measurement": "viability, T/C", "setting": "second compound 0.00316 µM, first compound 0.316 µM", "value": 88.6, "unit": "%"}, {"measurement": "viability, T/C", "setting": "second compound 0.00316 µM, first compound 1 µM", "value": 84.2, "unit": "%"}, {"measurement": "viability, T/C", "setting": "second compound 0.00316 µM, first compound 3.16 µM", "value": 69.8, "unit": "%"}, {"measurement": "viability, T/C", "setting": "second compound 0.00316 µM, first compound 10 µM", "value": 71.7, "unit": "%"}, {"measurement": "viability, T/C", "setting": "second compound 0.01 µM, first compound 0.0316 µM", "value": 103, "unit": "%"}, {"measurement": "viability, T/C", "setting": "second compound 0.01 µM, first compound 0.1 µM", "value": 94.4, "unit": "%"}, {"measurement": "viability, T/C", "setting": "second compound 0.01 µM, first compound 0.316 µM", "value": 85, "unit": "%"}, {"measurement": "viability, T/C", "setting": "second compound 0.01 µM, first compound 1 µM", "value": 77.1, "unit": "%"}, {"measurement": "viability, T/C", "setting": "second compound 0.01 µM, first compound 3.16 µM", "value": 74, "unit": "%"}, {"measurement": "viability, T/C", "setting": "second compound 0.01 µM, first compound 10 µM", "value": 63.3, "unit": "%"}, {"measurement": "viability, T/C", "setting": "[1]", "value": 109, "unit": "%"}, {"measurement": "viability, T/C", "setting": "[2]", "value": 98.9, "unit": "%"}, {"measurement": "viability, T/C", "setting": "[3]", "value": 92.1, "unit": "%"}, {"measurement": "viability, T/C", "setting": "[4]", "value": 76, "unit": "%"}, {"measurement": "viability, T/C", "setting": "[5]", "value": 81.5, "unit": "%"}, {"measurement": "viability, T/C", "setting": "[6]", "value": 65.5, "unit": "%"}, {"measurement": "viability, T/C", "setting": "[7]", "value": 110, "unit": "%"}, {"measurement": "viability, T/C", "setting": "[8]", "value": 88, "unit": "%"}, {"measurement": "viability, T/C", "setting": "[9]", "value": 83, "unit": "%"}, {"measurement": "viability, T/C", "setting": "[10]", "value": 77.2, "unit": "%"}, {"measurement": "viability, T/C", "setting": "[11]", "value": 74.8, "unit": "%"}, {"measurement": "viability, T/C", "setting": "[12]", "value": 68.1, "unit": "%"}, {"measurement": "viability, T/C", "setting": "[13]", "value": 105, "unit": "%"}, {"measurement": "viability, T/C", "setting": "[14]", "value": 114, "unit": "%"}, {"measurement": "viability, T/C", "setting": "[15]", "value": 85.4, "unit": "%"}, {"measurement": "viability, T/C", "setting": "[16]", "value": 77.8, "unit": "%"}, {"measurement": "viability, T/C", "setting": "[17]", "value": 69.9, "unit": "%"}, {"measurement": "viability, T/C", "setting": "[18]", "value": 64.4, "unit": "%"}, {"measurement": "viability, T/C", "setting": "[19]", "value": 99.4, "unit": "%"}, {"measurement": "viability, T/C", "setting": "[20]", "value": 88.7, "unit": "%"}, {"measurement": "viability, T/C", "setting": "[21]", "value": 84.1, "unit": "%"}, {"measurement": "viability, T/C", "setting": "[22]", "value": 84.1, "unit": "%"}, {"measurement": "viability, T/C", "setting": "[23]", "value": 75.3, "unit": "%"}, {"measurement": "viability, T/C", "setting": "[24]", "value": 65.7, "unit": "%"}]}
{"smiles": "CC(=O)OC12COC1CC(O)C1(C)C(=O)C(O)C3=C(C)C(OC(=O)C(O)C(NC(=O)OC(C)(C)C)c4ccccc4)CC(O)(C(OC(=O)c4ccccc4)C21)C3(C)C", "note": "(centres undefined) + C#Cc1c(F)ccc2cc(O)cc(-c3ncc4c(N5CC6CCC(C5)N6)nc(OCC56CCCN5CC(F)C6)nc4c3F)c12", "values": [{"measurement": "pIC50", "setting": "second compound 0.0316 µM", "value": "< 5.00"}, {"measurement": "pIC50", "setting": "second compound 0.1 µM", "value": "< 5.00"}, {"measurement": "pIC50", "setting": "second compound 0.316 µM", "value": "< 5.00"}, {"measurement": "pIC50", "setting": "second compound 1 µM", "value": "< 5.00"}, {"measurement": "pIC50", "setting": "second compound 3.16 µM", "value": 5.21}, {"measurement": "pIC50", "setting": "second compound 10 µM", "value": 6.09}, {"measurement": "viability, T/C", "setting": "[1]", "value": 80.7, "unit": "%"}, {"measurement": "viability, T/C", "setting": "[2]", "value": 80.8, "unit": "%"}, {"measurement": "viability, T/C", "setting": "[3]", "value": 76.1, "unit": "%"}, {"measurement": "viability, T/C", "setting": "[4]", "value": 76.1, "unit": "%"}, {"measurement": "viability, T/C", "setting": "[5]", "value": 74.5, "unit": "%"}, {"measurement": "viability, T/C", "setting": "[6]", "value": 75.1, "unit": "%"}, {"measurement": "viability, T/C", "setting": "[7]", "value": 87.6, "unit": "%"}, {"measurement": "viability, T/C", "setting": "[8]", "value": 80.8, "unit": "%"}, {"measurement": "viability, T/C", "setting": "[9]", "value": 71.5, "unit": "%"}, {"measurement": "viability, T/C", "setting": "[10]", "value": 75.2, "unit": "%"}, {"measurement": "viability, T/C", "setting": "[11]", "value": 78.9, "unit": "%"}, {"measurement": "viability, T/C", "setting": "[12]", "value": 75.4, "unit": "%"}, {"measurement": "viability, T/C", "setting": "[13]", "value": 82.5, "unit": "%"}, {"measurement": "viability, T/C", "setting": "[14]", "value": 73.7, "unit": "%"}, {"measurement": "viability, T/C", "setting": "[15]", "value": 67.4, "unit": "%"}, {"measurement": "viability, T/C", "setting": "[16]", "value": 69.7, "unit": "%"}, {"measurement": "viability, T/C", "setting": "[17]", "value": 77.1, "unit": "%"}, {"measurement": "viability, T/C", "setting": "[18]", "value": 59, "unit": "%"}, {"measurement": "viability, T/C", "setting": "[19]", "value": 78.5, "unit": "%"}, {"measurement": "viability, T/C", "setting": "[20]", "value": 74.4, "unit": "%"}, {"measurement": "viability, T/C", "setting": "[21]", "value": 59.6, "unit": "%"}, {"measurement": "viability, T/C", "setting": "[22]", "value": 67.4, "unit": "%"}, {"measurement": "viability, T/C", "setting": "[23]", "value": 69, "unit": "%"}, {"measurement": "viability, T/C", "setting": "[24]", "value": 49.8, "unit": "%"}, {"measurement": "viability, T/C", "setting": "second compound 3.16 µM, first compound 0.0316 µM", "value": 72.8, "unit": "%"}, {"measurement": "viability, T/C", "setting": "second compound 3.16 µM, first compound 0.1 µM", "value": 58.2, "unit": "%"}, {"measurement": "viability, T/C", "setting": "second compound 3.16 µM, first compound 0.316 µM", "value": 59, "unit": "%"}, {"measurement": "viability, T/C", "setting": "second compound 3.16 µM, first compound 1 µM", "value": 65.8, "unit": "%"}, {"measurement": "viability, T/C", "setting": "second compound 3.16 µM, first compound 3.16 µM", "value": 63.3, "unit": "%"}, {"measurement": "viability, T/C", "setting": "second compound 3.16 µM, first compound 10 µM", "value": 40.2, "unit": "%"}, {"measurement": "viability, T/C", "setting": "second compound 10 µM, first compound 0.0316 µM", "value": 56.6, "unit": "%"}, {"measurement": "viability, T/C", "setting": "second compound 10 µM, first compound 0.1 µM", "value": 48.2, "unit": "%"}, {"measurement": "viability, T/C", "setting": "second compound 10 µM, first compound 0.316 µM", "value": 52.4, "unit": "%"}, {"measurement": "viability, T/C", "setting": "second compound 10 µM, first compound 1 µM", "value": 54.7, "unit": "%"}, {"measurement": "viability, T/C", "setting": "second compound 10 µM, first compound 3.16 µM", "value": 40.1, "unit": "%"}, {"measurement": "viability, T/C", "setting": "second compound 10 µM, first compound 10 µM", "value": 35.5, "unit": "%"}]}
